Results on two compounds are retold here after BindingDB's records for doi:10.1038/nchembio.2195 (University of Texas M. D. Anderson Cancer Center, 2016).

By IC50 is commonly meant the concentration that inhibits the measured activity by half. A lower IC50 goes with greater potency.

SMILES strings stand for the structures.

The target of one test is Alpha-enolase (Homo sapiens, UniProt P06733). Briefly: Enolase Enzymatic Assays. Particulars: pH 7.4. The method, then: (§1) Enolase activity was measured by two different methods: a fluorometric NADH-linked assay or adirect spectrophotometric assay via formation of PEP. In the fluorescent assay,enolase activity was measured via NADH oxidation in a pyruvate kinase-dehydrogenase coupled assay. The assay is conducted in 10 mM KCl, 5 mM MgSO4, and 100 mM triethanolamine at pH 7.4, with 400 uM NADH and 2 mM ADP. 2-PGA, pyruvate kinase (PK) and lactate dehydrogenase(LDH) are provided in excess, with conversion of 2-PGA to PEP by enolase being rate limiting. PEP (with ADP) is substrate of PK; pyruvate formed by thisreaction is linked to NADH oxidation by LDH. Enolase activity is determinedby fluorescence measurement of oxidation of NADH by excitation at 340 nmand emission at 460 nm. The substrate concentration was 5 mM 2-PGA unlessotherwise indicated. Fluorescence was measured using an Omega FluorescencePlate Reader (BMG Labtech). Alternatively, enolase activity was measured directly by the appearance of PEP from 2-PGA via absorption at 240 nm. The assay medium was the same, except that all the auxiliary reagents (PK or LDH, NADH and ADP) are omitted. Both assays were conducted in a 96-well plate format, with the direct assay performed in UV-transmissible plates.

The target in a further test is Gamma-enolase (Homo sapiens, UniProt P09104). Briefly: Enolase Enzymatic Assays. Particulars: pH 7.4. The method, then:
as §1

Sequence of Alpha-enolase (P06733 whole entry): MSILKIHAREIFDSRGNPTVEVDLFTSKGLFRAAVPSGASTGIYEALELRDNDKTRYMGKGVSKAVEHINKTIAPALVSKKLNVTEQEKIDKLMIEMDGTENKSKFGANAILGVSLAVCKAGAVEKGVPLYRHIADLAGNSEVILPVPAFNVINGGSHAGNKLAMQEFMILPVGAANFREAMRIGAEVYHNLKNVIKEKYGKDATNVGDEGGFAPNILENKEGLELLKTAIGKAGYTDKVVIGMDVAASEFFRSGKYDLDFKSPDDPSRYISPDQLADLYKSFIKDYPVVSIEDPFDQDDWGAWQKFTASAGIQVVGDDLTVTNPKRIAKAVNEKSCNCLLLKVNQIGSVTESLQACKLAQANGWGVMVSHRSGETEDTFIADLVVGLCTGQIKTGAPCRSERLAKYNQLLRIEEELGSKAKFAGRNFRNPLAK
Sequence of Gamma-enolase (P09104 whole entry): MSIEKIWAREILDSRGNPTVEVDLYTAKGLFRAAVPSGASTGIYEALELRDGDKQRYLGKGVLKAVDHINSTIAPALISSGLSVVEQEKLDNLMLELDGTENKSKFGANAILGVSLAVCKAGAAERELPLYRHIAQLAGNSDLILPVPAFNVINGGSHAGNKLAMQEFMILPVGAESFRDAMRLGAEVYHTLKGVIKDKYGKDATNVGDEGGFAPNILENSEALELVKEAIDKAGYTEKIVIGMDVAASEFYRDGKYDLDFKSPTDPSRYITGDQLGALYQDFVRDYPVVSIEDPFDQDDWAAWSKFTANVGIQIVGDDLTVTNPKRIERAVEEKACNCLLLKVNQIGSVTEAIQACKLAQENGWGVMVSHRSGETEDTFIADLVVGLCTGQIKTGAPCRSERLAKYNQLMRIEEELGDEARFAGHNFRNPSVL

Take `O=C1[C@@H](P(=O)(O)O)C[C@H](O)N1O` [SF2312]: the IC50 against Alpha-enolase was found to be 37.9 nM; on Gamma-enolase, 42.5 nM.
Taken in the same sequence, the figures for `O=C(CP(=O)(O)O)NO` [phosphonoacetohydroxamate (PhAH)] were 53.2 nM and 62.3 nM.
